Article PMC6057649, “Development of NanoLuc-PEST expressing Leishmania mexicana as a new drug discovery tool for axenic- and intramacrophage-based assays” (PLoS Neglected Tropical Diseases, 2018)
pEC50: −log10 of the molar value. Several values for one entry are separate records, joined by “and”; a condition that tells them apart may be missing. Identical values can stand only once. Like-named read-outs stand apart in the source and are kept apart here.

Tests used:
[1] = test system: NanoLuc-PEST expressing L. mexicana axenic amastigotes; experiment: microbe, parasite or virus in culture; type: cell-based; conditions: for EC90: read-out: EC90 against amastigotes, Axenic
[2] = test system: L. mexicana NanoLuc-PEST intramacrophage amastigotes; experiment: Bioluminescence-based intramacrophage assay in THP-1 infection model; type: cell-based; conditions: for pEC50: read-out: EC50 against amastigotes, Intramacrophage; for EC90: read-out: EC90 against amastigotes, Intramacrophage
[3] = test system: L. mexicana intramacrophage amastigotes; parameters: method as in PMID 14695832; conditions: values in brackets ref 52, read-out: Previous EC50, intramacrophage amastigotes; cited from earlier work
HepG2 = conditions: read-out: HepG2 CC50; ref MMV Pathogen Box website; cited from earlier work
[4] = Leishmania mexicana, THP-1 infection model, bioluminescence

Compound	viability at 2 µM ([1]; Leishmania mexicana, 2 µM compound, 72 hours, relative to DMSO only control, n = 4, read-out: Relative Bioluminescence (%)) [%]	viability at 10 µM ([1]; Leishmania mexicana, 10 µM compound, 72 hours, relative to DMSO only control, n = 4, read-out: Relative Bioluminescence (%)) [%]	pEC50 ([1]; Leishmania mexicana, hit compounds from the axenic amastigote screen, S3 Table, read-out: EC50, Axenic Amastigotes)	pEC50 ([1]; Leishmania mexicana, read-out: EC50 against amastigotes, Axenic)	EC90 ([1]; Leishmania mexicana) [nM]	pEC50 [2, 4]	EC90 [2, 4] [nM]	pEC50 [3]	Relative Bioluminescence (%) ([1]; 2 µM compound, 72 hours, relative to DMSO only control, n = 4)	Relative Bioluminescence (%) ([1]; 10 µM compound, 72 hours, relative to DMSO only control, n = 4)	pEC50 ([1]; hit compounds from the axenic amastigote screen, S3 Table, read-out: EC50, Axenic Amastigotes)	pEC50 ([1]; read-out: EC50 against amastigotes, Axenic)	EC90 [1] [nM]	pEC50 [2]	EC90 [2] [nM]	pEC50 (THP-1 cell line)	CC50 (HepG2) [nM]
CC(C)(C)[C@H]1CC[C@H](CC2=C(O)C(=O)c3ccccc3C2=O)CC1 [MMV689480, Buparvaquone, reference compound]	-0.24	0.15	8.66	8.70	11	6.40	1260	5.90 and 5.84									
CCc1c(C)nc(-n2nc(C)cc2NC(=O)c2ccccc2SC)[nH]c1=O [MMV676477]									-0.98	-0.92	7.15	7.16	168	5.32	6110	< 4.30	1300
